Here are results for 64 molecules from patent US6979686B1, “Substituted pyrazoles as p38 kinase inhibitors” (Pharmacia Corporation, priority 2001, dated 2005).

The term IC50 denotes the concentration at which inhibition is half-maximal.

Structures are written as SMILES.

In the first assay the target is T1, human p38 kinase alpha (Homo sapiens, UniProt Q16539).
T1 construct: GST (N, cleaved yes); made in house; host or cells: E. coli DH10B
T1 sequence (Q16539 whole entry): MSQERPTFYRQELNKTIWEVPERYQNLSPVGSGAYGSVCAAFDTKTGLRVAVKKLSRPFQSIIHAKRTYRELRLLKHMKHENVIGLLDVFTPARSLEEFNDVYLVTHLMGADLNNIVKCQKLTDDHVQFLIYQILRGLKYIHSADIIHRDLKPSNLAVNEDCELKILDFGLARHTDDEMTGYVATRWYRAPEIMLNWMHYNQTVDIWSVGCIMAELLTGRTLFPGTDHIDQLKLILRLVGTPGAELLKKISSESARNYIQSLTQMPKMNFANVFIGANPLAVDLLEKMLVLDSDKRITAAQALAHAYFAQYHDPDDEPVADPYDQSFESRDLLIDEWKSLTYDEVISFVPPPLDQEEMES
Put plainly: p38 kinase in vitro assay, phosphorylation of biotinylated PHAS-I with 32P-ATP. Type of assay: biochemical. To be noted: @ 1.0 uM.
Take `O=C(NCCc1[nH]nc(-c2ccc(F)cc2)c1-c1ccncc1)c1ccccn1` [Example B-1007]: the “P38 alpha kinase % inhib @ conc. (uM)” value is recorded as 52.0% @.

Turning to `CCCOC(=O)NCCCc1[nH]nc(-c2ccc(F)cc2)c1-c1ccncc1` [Example B-1230], the “P38 alpha kinase % inhib @ conc.” value is 90.0% @.

`O=C(NCCCc1[nH]nc(-c2ccc(F)cc2)c1-c1ccncc1)NCCc1ccccc1` [Example B-1221]: the “P38 alpha kinase % inhib @ conc.” value is recorded as 82.0% @.

In the case of `O=C(NCCCc1[nH]nc(-c2ccc(F)cc2)c1-c1ccncc1)c1cccc(Br)c1` [Example B-1167], the “P38 alpha kinase % inhib @ conc. (uM)” value is given as 70.0% @.

`COc1ccc(CC(=O)NCCc2[nH]nc(-c3ccc(F)cc3)c2-c2ccncc2)cc1` [Example B-1000]: the “P38 alpha kinase % inhib @ conc. (uM)” value is 55.0% @.

Consider `CCNC(=O)NCCCc1[nH]nc(-c2ccc(F)cc2)c1-c1ccncc1` [Example B-1226], for which the “P38 alpha kinase % inhib @ conc.” value is listed as 89.0% @.

`CCN(CC)C(=O)NCCCc1[nH]nc(-c2ccc(F)cc2)c1-c1ccncc1` [Example B-1225]: the “P38 alpha kinase % inhib @ conc.” value was 89.0% @.

Regarding `Cc1ccc(C(=O)NCCCc2[nH]nc(-c3ccc(F)cc3)c2-c2ccncc2)cc1` [Example B-1179], the “P38 alpha kinase % inhib @ conc. (uM)” value was 86.0% @.

As for `O=C(NCCCc1[nH]nc(-c2ccc(F)cc2)c1-c1ccncc1)c1ccno1` [Example B-1169], the “P38 alpha kinase % inhib @ conc. (uM)” value is recorded as 80.0% @.

With `CCCNC(=O)NCCc1[nH]nc(-c2ccc(F)cc2)c1-c1ccncc1` [Example B-1041], the “P38 alpha kinase % inhib @ conc. (uM)” value came out at 70.0% @.

Staying with this assay, now noted: @ 1.0 uM; read-out: P38 alpha kinase % inhib @ conc.
`N#Cc1cccc(C(=O)NCc2[nH]nc(-c3ccc(F)cc3)c2-c2ccncc2)c1` [Example B-0023]: the inhibition at 1 µM was 90%.

The assay is the same for the next values; noted with them: @ 10.0 uM.
Take `Cc1c(-c2ccncc2)c(-c2ccc(F)cc2)nn1CC(=O)NC1CCC1` [Example B-2330]: the “P38 alpha kinase % inhib @ conc.” value is 81.0% @.

In the case of `Cc1c(-c2ccncc2)c(-c2ccc(F)cc2)nn1CC(=O)Nc1cc(C(F)(F)F)cc(C(F)(F)F)c1` [Example B-2425], the “P38 alpha kinase IC50, uM or % inhib @ conc. (uM): % inhib” value worked out at 79.0% @.

Turning to `Cc1c(-c2ccncc2)c(-c2ccc(F)cc2)nn1CC(=O)Nc1ccccc1Cc1ccccc1` [Example B-2434], the “P38 alpha kinase IC50, uM or % inhib @ conc. (uM): % inhib” value was 92.0% @.

Still in this assay, the particulars now being: Table 8; 1% DMSO; read-out: p38α Kinase Assay IC50.
On to `Clc1ccc(-c2[nH]nc(N3CCNCC3)c2-c2ccncc2)cc1` [Example A-328, 1-[5-(4-chlorophenyl)-4-(4-pyridinyl)-1H-pyrazol-3-yl]piperazine], for which the 50% inhibitory concentration (IC50) was determined as 12 nM.

The assay is the same for the next values; noted with them: in vitro P38-alpha kinase inhibition; read-out: P38 alpha kinase IC50.
As for `CC(NS(=O)(=O)c1cccc2cccnc12)c1[nH]nc(-c2ccc(F)cc2)c1-c1ccncc1` (stereo not shown) [Example B-0620], the half-maximal inhibitory concentration (IC50) was 1590 nM.

As for `CC(NC(=O)Nc1ccccc1O)c1[nH]nc(-c2ccc(F)cc2)c1-c1ccncc1` (stereo not shown) [Example B-0587], the 50% inhibitory concentration (IC50) stood at 6840 nM.

As to `Cc1noc(C)c1S(=O)(=O)NC(C)c1[nH]nc(-c2ccc(F)cc2)c1-c1ccncc1` (stereo not shown) [Example B-0653], the 50% inhibitory concentration (IC50) was 2010 nM.

In the case of `C[C@@H](NS(=O)(=O)c1ccc(F)c(Cl)c1)c1[nH]nc(-c2ccc(F)cc2)c1-c1ccncc1` [Example B-0466], the half-inhibitory concentration (IC50) was less than 100 nM.

`CC(NC(=O)C1CC1)c1[nH]nc(-c2ccc(F)cc2)c1-c1ccncc1` (stereo not shown) [Example B-0538]: the IC50 stood at 1130 nM.

On to `O=C(NC(Cc1ccccc1)c1[nH]nc(-c2ccc(F)cc2)c1-c1ccncc1)C1CCCC1` (stereo not shown) [Example B-0852], for which the IC50 was 1020 nM.

Regarding `O=S(=O)(NCCc1[nH]nc(-c2ccc(F)cc2)c1-c1ccncc1)c1ccc2ccccc2c1` [Example B-1103], the half-maximal inhibitory concentration (IC50) was found to be 94 nM.

On to `CC(NS(=O)(=O)Cc1ccccc1[N+](=O)[O-])c1[nH]nc(-c2ccc(F)cc2)c1-c1ccncc1` (stereo not shown) [Example B-0619], for which the concentration for half-maximal inhibition (IC50) is less than 100 nM.

For the molecule `O=S(=O)(NCCc1[nH]nc(-c2ccc(F)cc2)c1-c1ccncc1)c1ccc(F)c(Cl)c1` [Example B-1094], the half-maximal inhibitory concentration (IC50) turned out to be 13 nM.

For `N#Cc1ccc(S(=O)(=O)NCCc2[nH]nc(-c3ccc(F)cc3)c2-c2ccncc2)cc1` [Example B-1107], the IC50 was 57 nM.

Turning to `CC(NS(=O)(=O)c1cccs1)c1[nH]nc(-c2ccc(F)cc2)c1-c1ccncc1` (stereo not shown) [Example B-0575], the IC50 came out at 32 nM.

Turning to `CC(NS(=O)(=O)c1ccc(F)cc1Cl)c1[nH]nc(-c2ccc(F)cc2)c1-c1ccncc1` (stereo not shown) [Example B-0626], the IC50 was less than 100 nM.

Turning to `COc1cccc(C(=O)NC(Cc2ccccc2)c2[nH]nc(-c3ccc(F)cc3)c2-c2ccncc2)c1` (stereo not shown) [Example B-0824], the IC50 came out at 3410 nM.

With `Cc1ccccc1S(=O)(=O)NC(C)c1[nH]nc(-c2ccc(F)cc2)c1-c1ccncc1` (stereo not shown) [Example B-0646], the IC50 was determined as 260 nM.

As for `C=CCOC(=O)NC(Cc1ccccc1)c1[nH]nc(-c2ccc(F)cc2)c1-c1ccncc1` (stereo not shown) [Example B-0833], the IC50 was determined as 950 nM.

Regarding `Cc1cccc(Cl)c1S(=O)(=O)NC(C)c1[nH]nc(-c2ccc(F)cc2)c1-c1ccncc1` (stereo not shown) [Example B-0644], the half-maximal inhibitory concentration (IC50) amounted to 58 nM.

Regarding `O=C(NCCc1[nH]nc(-c2ccc(F)cc2)c1-c1ccncc1)c1cc(C(F)(F)F)ccc1F` [Example B-1134], the 50% inhibitory concentration (IC50) was found to be 1710 nM.

In the case of `CC(C)S(=O)(=O)NC(Cc1ccccc1)c1[nH]nc(-c2ccc(F)cc2)c1-c1ccncc1` (stereo not shown) [Example B-0709], the IC50 worked out at 840 nM.

Take `O=C(Nc1ccc(F)cc1)NC(Cc1ccccc1)c1[nH]nc(-c2ccc(F)cc2)c1-c1ccncc1` (stereo not shown) [Example B-0773]: the concentration for half-maximal inhibition (IC50) was found to be 14000 nM.

Regarding `CC(C)NC(=O)NC(Cc1ccccc1)c1[nH]nc(-c2ccc(F)cc2)c1-c1ccncc1` (stereo not shown) [Example B-0723], the 50% inhibitory concentration (IC50) was 470 nM.

Turning to `CC(NC(=O)c1c(F)ccc(F)c1F)c1[nH]nc(-c2ccc(F)cc2)c1-c1ccncc1` (stereo not shown) [Example B-0680], the IC50 turned out to be 420 nM.

Regarding `C[C@@H](NS(=O)(=O)c1ccc(Br)cc1)c1[nH]nc(-c2ccc(F)cc2)c1-c1ccncc1` [Example B-0432], the IC50 is less than 100 nM.

Turning to `CCOC(=O)NC(Cc1ccccc1)c1[nH]nc(-c2ccc(F)cc2)c1-c1ccncc1` (stereo not shown) [Example B-0748], the half-maximal inhibitory concentration (IC50) is 1200 nM.

Turning to `CCOC(=O)NC(C)c1[nH]nc(-c2ccc(F)cc2)c1-c1ccncc1` (stereo not shown) [Example B-0603], the IC50 was found to be 90 nM.

For the molecule `O=C(NC(Cc1ccccc1)c1[nH]nc(-c2ccc(F)cc2)c1-c1ccncc1)c1ccc(I)cc1` (stereo not shown) [Example B-0839], the IC50 turned out to be 4300 nM.

As for `CC(NC(=O)c1ccccc1I)c1[nH]nc(-c2ccc(F)cc2)c1-c1ccncc1` (stereo not shown) [Example B-0531], the half-maximal inhibitory concentration (IC50) is 500 nM.

The assay is the same for the next values; noted with them: in vitro P38-alpha kinase; read-out: P38 alpha kinase IC50.
On to `CCOCCCNC(=O)Cn1nc(-c2ccc(F)cc2)c(-c2ccncc2)c1C` [Example B-2273], for which the IC50 was 1920 nM.

Regarding `COc1cc(CNC(=O)Cn2nc(-c3ccc(F)cc3)c(-c3ccncc3)c2C)cc(OC)c1OC` [Example B-2297], the IC50 stood at 3590 nM.

Regarding `O=C(c1cccc(C(F)(F)F)c1F)N1CCC(c2[nH]nc(-c3ccc(F)cc3)c2-c2ccncc2)CC1` [Example B-1407], the concentration for half-maximal inhibition (IC50) stood at 400 nM.

`O=C(c1cc(F)cc(C(F)(F)F)c1)N1CCC(c2[nH]nc(-c3ccc(F)cc3)c2-c2ccncc2)CC1` [Example B-1409]: the IC50 was less than 100 nM.

For the molecule `O=C(c1ccc(F)c(C(F)(F)F)c1)N1CCC(c2[nH]nc(-c3ccc(F)cc3)c2-c2ccncc2)CC1` [Example B-1408], the half-inhibitory concentration (IC50) came to 270 nM.

For the molecule `O=C(c1cccc(Cl)c1)N1CCC(c2[nH]nc(-c3ccc(F)cc3)c2-c2ccncc2)CC1` [Example B-1394], the IC50 is 320 nM.

`O=S(=O)(NCc1[nH]nc(-c2ccc(F)cc2)c1-c1ccncc1)c1ccc(-c2ccccc2)cc1` [Example B-0256]: the IC50 was less than 100 nM.

`O=C(c1ccccc1I)N1CCC(c2[nH]nc(-c3ccc(F)cc3)c2-c2ccncc2)CC1` [Example B-1359]: the IC50 is 5 nM.

As to `O=C(NCCCc1[nH]nc(-c2ccc(F)cc2)c1-c1ccncc1)c1c(F)ccc(F)c1F` [Example B-1332], the half-inhibitory concentration (IC50) worked out at 7 nM.

As to `CC(C)C(=O)N1CCC(c2[nH]nc(-c3ccc(F)cc3)c2-c2ccncc2)CC1` [Example B-1361], the concentration for half-maximal inhibition (IC50) worked out at 30 nM.

Turning to `CCc1ccc(S(=O)(=O)NCCCc2[nH]nc(-c3ccc(F)cc3)c2-c2ccncc2)cc1` [Example B-1265], the concentration for half-maximal inhibition (IC50) came to 430 nM.

`Cc1c(-c2ccncc2)c(-c2ccc(F)cc2)nn1CC(=O)NCc1ccccn1` [Example B-2281]: the half-inhibitory concentration (IC50) stood at 810 nM.

Regarding `Cc1c(-c2ccncc2)c(-c2ccc(F)cc2)nn1CC(=O)NCc1ccc(N(C)C)cc1` [Example B-2275], the half-maximal inhibitory concentration (IC50) is 2160 nM.

In the case of `Cc1c(-c2ccncc2)c(-c2ccc(F)cc2)nn1CC(=O)NCCc1ccc([N+](=O)[O-])cc1` [Example B-2302], the IC50 is 1000 nM.

As to `COc1ccc(CNC(=O)Cn2nc(-c3ccc(F)cc3)c(-c3ccncc3)c2C)c(OC)c1` [Example B-2278], the half-maximal inhibitory concentration (IC50) came to 800 nM.

As to `O=S(=O)(c1cc(Cl)cc(Cl)c1)N1CCC(c2[nH]nc(-c3ccc(F)cc3)c2-c2ccncc2)CC1` [Example B-1453], the IC50 was 2530 nM.

Take `O=C(c1c(Cl)cccc1Cl)N1CCC(c2[nH]nc(-c3ccc(F)cc3)c2-c2ccncc2)CC1` [Example B-1413]: the IC50 stood at 16 nM.

Consider `Cc1cccc(Cl)c1S(=O)(=O)NCCCc1[nH]nc(-c2ccc(F)cc2)c1-c1ccncc1` [Example B-1272], for which the half-inhibitory concentration (IC50) turned out to be 14 nM.

`COc1ccc(C)cc1S(=O)(=O)NCCCc1[nH]nc(-c2ccc(F)cc2)c1-c1ccncc1` [Example B-1275]: the half-maximal inhibitory concentration (IC50) was less than 100 nM.

`O=S(=O)(NCCCc1[nH]nc(-c2ccc(F)cc2)c1-c1ccncc1)c1cccc(Cl)c1` [Example B-1267]: the concentration for half-maximal inhibition (IC50) was less than 100 nM.

Consider `Cc1c(C)c(S(=O)(=O)NCCCc2[nH]nc(-c3ccc(F)cc3)c2-c2ccncc2)c(C)c2c1OC(C)(C)CC2` [Example B-1287], for which the IC50 was found to be 250 nM.

Take `O=C(c1cccc(Br)c1)N1CCC(c2[nH]nc(-c3ccc(F)cc3)c2-c2ccncc2)CC1` [Example B-1365]: the IC50 amounted to 170 nM.

For `CS(=O)(=O)c1ccccc1S(=O)(=O)N1CCC(c2[nH]nc(-c3ccc(F)cc3)c2-c2ccncc2)CC1` [Example B-1462], the IC50 stood at 220 nM.
